The source made the active and inactive calls. The rule behind the calls is not given here.
Tested on: rodent carcinogenicity bioassays, tumor incidence
Experiment: CCRIS carcinogenicity studies
Procedure, shortened: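 Archive of carcinogenicity, mutagenicity, tumor promotion and tumor inhibition results drawn from journals, NCI reports and other sources, expert-reviewed; covers 1985-2011 and is no longer updated.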

## CCCCCCN(N=O)C(N)=O
Species: RAT, Strain/Sex: F344/FEMALE, Route: GAVAGE, Dose: 0, 17.5 MG/ML (TOTAL DOSE 0; 2 MMOL) IN 2 ML ETHYL ACETATE AND CORN OIL (1:2) 2/WK FOR 50 WK (STUDY DURATION: LIFETIME), Dose: 0, 17.5 MG/ML (TOTAL DOSE 0; 2 MMOL) IN 2 ML ETHYL ACETATE AND CORN OIL (1:2) 2/WK FOR 50 WK (STUDY DURATION: LIFETIME), Tumor Site: Type of Lesion: FORESTOMACH: SQUAMOUS CELL CARCINOMA, LUNG: TUMOR, MAMMARY GLAND: TUMOR, UTERUS: TUMOR, Tumor Site: Type of Lesion: FORESTOMACH: SQUAMOUS CELL CARCINOMA, LUNG: TUMOR, MAMMARY GLAND: TUMOR, UTERUS: TUMOR
  carcinogen call: active; positive
Species: RAT, Strain/Sex: F344/FEMALE, Route: GAVAGE, Dose: 0, 17.5 MG/ML IN 0.2 ML ETHYL ACETATE AND CORN OIL 2/WK FOR 50 WK (STUDY DURATION: LIFESPAN), Tumor Site: Type of Lesion: FORESTOMACH: TUMOR, LUNG: TUMOR, MAMMARY GLAND: TUMOR, UTERUS: TUMOR, Tumor Site: Type of Lesion: FORESTOMACH: TUMOR, LUNG: TUMOR, MAMMARY GLAND: TUMOR, UTERUS: TUMOR
  carcinogen call: active; positive
Species: RAT, Strain/Sex: F344/MALE, Route: GAVAGE, Dose: 0, 17.5 MG/ML (TOTAL DOSE 0; 2 MMOL) IN 2 ML ETHYL ACETATE AND CORN OIL (1:2) 2/WK FOR 50 WK (STUDY DURATION: LIFETIME), Dose: 0, 17.5 MG/ML (TOTAL DOSE 0; 2 MMOL) IN 2 ML ETHYL ACETATE AND CORN OIL (1:2) 2/WK FOR 50 WK (STUDY DURATION: LIFETIME), Tumor Site: Type of Lesion: FORESTOMACH: SQUAMOUS CELL CARCINOMA, LUNG: TUMOR, BODY CAVITY: MESOTHELIOMA, Tumor Site: Type of Lesion: FORESTOMACH: SQUAMOUS CELL CARCINOMA, LUNG: TUMOR, BODY CAVITY: MESOTHELIOMA
  carcinogen call: active; positive
Species: RAT, Strain/Sex: F344/MALE, Route: GAVAGE, Dose: 0, 17.5 MG/ML IN 0.2 ML ETHYL ACETATE AND CORN OIL 2/WK FOR 50 WK (STUDY DURATION: LIFESPAN), Tumor Site: Type of Lesion: FORESTOMACH: TUMOR, LUNG: TUMOR, PERITONEUM: MESOTHELIOMA, SKIN: TUMOR, Tumor Site: Type of Lesion: FORESTOMACH: TUMOR, LUNG: TUMOR, PERITONEUM: MESOTHELIOMA, SKIN: TUMOR
  carcinogen call: active; positive

## CCC1(c2ccccc2)C(=O)N=C(O)NC1=O (stereo unspecified)
Species: MOUSE, Route: ORAL, Tumor Site: Type of Lesion: LIVER
  carcinogen call: active; positive
Species: MOUSE, Strain/Sex: C3H/HE/MALE, Route: ORAL, Dose: 0, 85 MG/KG/D IN DIET FOR DURATION OF STUDY (STUDY DURATION: 91 WK)
  carcinogen call: inactive; negative
Species: MOUSE, Strain/Sex: C57BL/MALE, Route: ORAL, Dose: 0, 85 MG/KG/D IN DIET FOR DURATION OF STUDY (STUDY DURATION: 100 WK)
  carcinogen call: inactive; negative
Species: RAT, Route: ORAL, Tumor Site: Type of Lesion: LIVER
  carcinogen call: active; positive
Species: RAT, Strain/Sex: F344/MALE, Route: ORAL, Dose: 0, 8, 30, 125, 500 PPM IN DIET FOR 104 WK (STUDY DURATION: 104 WK), Dose: 0, 8, 30, 125, 500 PPM IN DIET FOR 104 WK (STUDY DURATION: 104 WK)
  carcinogen call: inactive; negative

## CCOc1ccc(NC(C)=O)cc1
Species: MOUSE, Strain/Sex: B6C3F1/MALE, Route: ORAL, Dose: 0.6, 1.25% IN DIET, Tumor Site: Type of Lesion: KIDNEY: RENAL CELL ADENOMA, RENAL CELL CARCINOMA
  carcinogen call: active; positive
Species: RAT, Strain/Sex: SD/CSHI/MALE, Route: ORAL, Dose: 0, 2% IN DIET FOR 85 WK (STUDY DURATION: 85 WK), Tumor Site: Type of Lesion: RENAL PELVIS: CARCINOMA, PAPILLOMA, URINARY BLADDER: PAPILLOMA
  carcinogen call: active; positive
Species: RAT, Strain/Sex: SPRAGUE-DAWLEY/FEMALE, Route: ORAL, Dose: 1.25, 2.5% IN DIET FOR 18 MO, Tumor Site: Type of Lesion: NASAL CAVITY
  carcinogen call: active; positive
Species: RAT, Strain/Sex: SPRAGUE-DAWLEY/MALE, Route: ORAL, Dose: 0, 0.535% IN DIET FOR 117 WK, Tumor Site: Type of Lesion: KIDNEY, NASAL CAVITY: SQUAMOUS CELL CARCINOMA
  carcinogen call: active; positive
Species: RAT, Strain/Sex: SPRAGUE-DAWLEY/MALE, Route: ORAL, Dose: 1.25, 2.5% IN DIET FOR 18 MO, Tumor Site: Type of Lesion: NASAL CAVITY, URINARY TRACT
  carcinogen call: active; positive

## O=c1c(-c2ccc(O)cc2)coc2cc(O)cc(O)c12
Species: Rat, Strain/Sex: Sprague-Dawley/Female (50/Group), Route: Oral, Dose: During pregnancy, ingested doses for dams were ~0, 0.5, 9, and 45 mg/kg bw/day. During lactation, ingested doses for dam
  carcinogen call: inactive; negative
Species: Rat, Strain/Sex: Sprague-Dawley/Female (50/Group), Route: Oral, Dose: During pregnancy, ingested doses for dams were ~0, 0.5, 9, and 45 mg/kg bw/day. During lactation, ingested doses for dam, Tumor Site: Type of Lesion: Mammary gland: adenoma and adenocarcinoma combined (13.2%, 16.3%, 22.0%, 26.0%)
  carcinogen call: inactive; negative. positive trend but results do not reach statistical significance (ntp
Species: Rat, Strain/Sex: Sprague-Dawley/Female (50/Group), Route: Oral, Dose: During pregnancy, ingested doses for dams were ~0, 0.5, 9, and 45 mg/kg bw/day. During lactation, ingested doses for dam, Tumor Site: Type of Lesion: Mammary gland: adenoma and adenocarcinoma combined (16.7%, 8.0%, 16.0%, 32.7%) Pituitary gland: neoplasms (70.4%, 80.0%
  carcinogen call: inactive; positive but at 2 lower doses, there was a negative trend for the mammary tumors
Species: Rat, Strain/Sex: Sprague-Dawley/Female (50/Group), Route: Oral, Dose: During pregnancy, ingested doses for dams were ~0, 0.5, 9, and 45 mg/kg bw/day. During lactation, ingested doses for dam, Tumor Site: Type of Lesion: Pituitary gland: adenoma and carcinoma combined (Overall rate 70.4%, 65.3%, 80.0%, 88.0%)
  carcinogen call: inactive; negative (ntp describes as equivocal)
Species: Rat, Strain/Sex: Sprague-Dawley/Male (50/Group), Route: Oral, Dose: During pregnancy, ingested doses for dams were ~0, 0.5, 9, and 45 mg/kg bw/day. During lactation, ingested doses for dam
  carcinogen call: inactive; negative

## O=P(O)(O)O
Species: MOUSE, Strain/Sex: B6C3F1/FEMALE, Route: GAVAGE, Dose: 0, 500, 1000 MG/KG IN DEIONIZED WATER 5D/WK FOR 103 WK (STUDY DURATION: 105 WK), Dose: 0, 500, 1000 MG/KG IN DEIONIZED WATER 5D/WK FOR 103 WK (STUDY DURATION: 105 WK)
  carcinogen call: inactive; negative
Species: MOUSE, Strain/Sex: B6C3F1/MALE, Route: GAVAGE, Dose: 0, 500, 1000 MG/KG IN DEIONIZED WATER 5D/WK FOR 103 WK (STUDY DURATION: 105 WK), Dose: 0, 500, 1000 MG/KG IN DEIONIZED WATER 5D/WK FOR 103 WK (STUDY DURATION: 105 WK)
  carcinogen call: inactive; negative

## Nc1cc([N+](=O)[O-])ccc1C(=O)O
Species: MOUSE, Strain/Sex: B6C3F1/FEMALE, Route: ORAL, Dose: 0, 0.46, 1.0% OF DIET, TWA, Dose: 0, 0.46, 1.0% OF DIET, TWA
  carcinogen call: inactive; negative
Species: MOUSE, Strain/Sex: B6C3F1/MALE, Route: ORAL, Dose: 0, 0.46, 1.0% OF DIET, TWA, Dose: 0, 0.46, 1.0% OF DIET, TWA
  carcinogen call: inactive; negative
Species: RAT, Strain/Sex: F344/FEMALE, Route: ORAL, Dose: 0, 0.46, 1.5% OF DIET, TWA, Dose: 0, 0.46, 1.5% OF DIET, TWA
  carcinogen call: inactive; negative
Species: RAT, Strain/Sex: F344/MALE, Route: ORAL, Dose: 0, 0.46, 1.5% OF DIET, TWA, Dose: 0, 0.46, 1.5% OF DIET, TWA
  carcinogen call: inactive; negative

## O=C(OOC(=O)c1ccccc1)c1ccccc1
Species: MOUSE, Strain/Sex: SENCAR/FEMALE, Route: DERMAL, Dose: 0, 0.2 ML OF 100 MG/ML SOLUTION IN ACETONE 2 D/WK FOR 51 WK (STUDY DURATION: 52 WK), Tumor Site: Type of Lesion: SKIN: SQUAMOUS CELL CARCINOMA OR EPIDERMAL HYPERPLASIA
  carcinogen call: active; positive

## O=c1[nH]c(=O)n(O)c2nc[nH]c12
Species: RAT, Strain/Sex: SPRAGUE-DAWLEY/FEMALE, Route: SUBCUTANEOUS, Dose: 3-7 MG/SUSPENDED IN CARBOXYMETHYLCELLULOSE IN SALINE 1/WK FOR 22-26 WK, Tumor Site: Type of Lesion: INJECTION SITE, LIVER: HYPERPLASTIC NODULE OR HEPATOMA
  carcinogen call: active; positive
Species: RAT, Strain/Sex: SPRAGUE-DAWLEY/MALE, Route: SUBCUTANEOUS, Dose: 0, 0.1, 1.0 MG IN CARBOXYMETHYLCELLULOSE 3/WK FOR 8 WK, Dose: 0, 0.1, 1.0 MG IN CARBOXYMETHYLCELLULOSE 3/WK FOR 8 WK, Tumor Site: Type of Lesion: INJECTION SITE: SARCOMA, FIBROMA
  carcinogen call: active; positive
Species: RAT, Strain/Sex: WISTAR/MALE, FEMALE, Route: SUBCUTANEOUS, Dose: 3-7 MG/SUSPENDED IN CARBOXYMETHYLCELLULOSE IN SALINE 1/WK FOR 22-26 WK, Tumor Site: Type of Lesion: INJECTION SITE, LIVER: HYPERPLASTIC NODULE OR HEPATOMA
  carcinogen call: active; positive
Species: RAT, Strain/Sex: WISTAR/MALE, Route: ORAL, Dose: 7 MG IN CARBOXYMETHYLCELLULOSE IN SALINE 1/WK FOR 22 WK, Tumor Site: Type of Lesion: LIVER
  carcinogen call: active; positive
Species: RAT, Strain/Sex: WISTAR/MALE, Route: SUBCUTANEOUS, Dose: 0, 0.1, 1.0 MG IN CARBOXYMETHYLCELLULOSE 3/WK FOR 8 WK, Dose: 0, 0.1, 1.0 MG IN CARBOXYMETHYLCELLULOSE 3/WK FOR 8 WK, Tumor Site: Type of Lesion: INJECTION SITE: SARCOMA, FIBROMA
  carcinogen call: active; positive

From PubChem BioAssay AID1259411 (Chemical Carcinogenesis Research Information System (CCRIS), 2018)
